Structures are written as SMILES.

T1 sequence (Q14416 19-872): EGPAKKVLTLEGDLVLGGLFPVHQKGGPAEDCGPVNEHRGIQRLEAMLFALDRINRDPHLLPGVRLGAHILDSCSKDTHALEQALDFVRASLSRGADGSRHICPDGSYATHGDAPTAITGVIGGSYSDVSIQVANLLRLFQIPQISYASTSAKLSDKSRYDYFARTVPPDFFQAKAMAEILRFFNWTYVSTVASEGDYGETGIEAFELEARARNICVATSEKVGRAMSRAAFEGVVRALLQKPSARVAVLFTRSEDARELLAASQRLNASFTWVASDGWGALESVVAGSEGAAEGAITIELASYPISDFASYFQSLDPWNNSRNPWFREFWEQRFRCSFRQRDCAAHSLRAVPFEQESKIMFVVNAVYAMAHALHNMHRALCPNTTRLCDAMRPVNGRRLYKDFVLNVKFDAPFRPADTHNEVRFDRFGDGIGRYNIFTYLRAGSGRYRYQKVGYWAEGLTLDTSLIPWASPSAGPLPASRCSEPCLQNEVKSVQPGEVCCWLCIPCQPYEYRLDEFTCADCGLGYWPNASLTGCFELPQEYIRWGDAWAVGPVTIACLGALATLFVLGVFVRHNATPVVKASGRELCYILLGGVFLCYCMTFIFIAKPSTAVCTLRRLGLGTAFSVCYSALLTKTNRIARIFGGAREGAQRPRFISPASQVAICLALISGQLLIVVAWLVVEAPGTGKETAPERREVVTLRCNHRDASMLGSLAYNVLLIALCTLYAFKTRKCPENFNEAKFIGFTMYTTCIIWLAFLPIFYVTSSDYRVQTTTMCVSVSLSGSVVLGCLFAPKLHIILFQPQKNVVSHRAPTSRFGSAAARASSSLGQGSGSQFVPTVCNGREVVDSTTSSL

This assay has as its target T1, recombinant human mGluR2 (Homo sapiens, UniProt Q14416).
T1 construct: expressed in transfected cells
The experiment in a line: FLIPR Ca2+ mobilization assay, mGluR2 potentiation. The assay is classed as cell-based. To be noted: CHO dhfr- cells expressing human mGluR2 and Gα16, EC20 concentration of glutamate (900 nM). The procedure: Potencies are determined as follows. The compounds of the present invention may be tested in a fluorescence laser imaging plate reader (FLIPR) based assay. This assay is a common functional assay to monitor Ca^2+ mobilization in whole cells expressing recombinant receptor coupled with a promiscuous G-protein. CHO dhfr-cells stably expressing recombinant human mGluR2 and Gα16 loaded with Fluo-4 AM (Invitrogen, Carlsbad Calif.) are treated with varying concentrations of compounds and the Ca^2+ response is monitored on a FLIPR384 (Molecular Devices, Sunnydale Calif.) for agonist activity. The potentiation response is monitored after a subsequent addition of an EC20 concentration of glutamate (900 nM). The maximum calcium response at each concentration of compound for agonism or potentiation are plotted as dose responses curves fitted with a four parameters logistic equation giving EC50 and Hill coefficient using the iterative non linear curve fitting software program.
Take `CC(C)(C)Cn1nnc2c(Br)c(C#CC3CCN(CC(F)(F)F)CC3)ccc21` [Example 5, 4-bromo-1-(2,2-dimethylpropyl)-5-{[1-(2,2,2-trifluoroethyl)piperidin-4-yl]ethynyl}-1H-benzotriazole]: the EC50 is 123 nM.

For the compound `Clc1c(C#Cc2ccccn2)ccc2c1nnn2CC1CC1` [Example 9, 4-chloro-1-(cyclopropylmethyl)-5-(pyridin-2-ylethynyl)-1H-benzotriazole], the EC50 came out at 85 nM.

For `Clc1cncc(C#Cc2ccc3c(nnn3CC3CC3)c2Cl)c1` [Example 19, 4-chloro-5-[(5-chloropyridin-3-yl)ethynyl]-1-(cyclopropylmethyl)-1H-benzotriazole], the EC50 amounted to 292 nM.

Turning to `Cc1ccc(C#Cc2ccc3c(nnn3CC3CC3)c2Cl)cn1` [Example 17, 4-chloro-1-(cyclopropylmethyl)-5-[(6-methylpyridin-3-yl)ethynyl]-1H-benzotriazole], the EC50 was 140 nM.

On to `OCCCC#Cc1ccc2c(nnn2CC2CC2)c1Cl` [Example 14, 5-[4-chloro-1-(cyclopropylmethyl)-1H-benzotriazol-5-yl]pent-4-yn-1-ol], for which the EC50 was determined as 180 nM.

Turning to `FC1(C#Cc2ccc3c(nnn3CC3CC3)c2Br)CCNCC1` [Example 4, 4-bromo-1-(cyclopropylmethyl)-5-[(4-fluoropiperidin-4-yl)ethynyl]-1H-benzotriazole], the EC50 was found to be 1220 nM.

Regarding `CN1C(=O)CN(CC#Cc2ccc3c(nnn3CC3CC3)c2Cl)C1=O` [Example 30, 1-{3-[4-Chloro-1-(cyclopropylmethyl)-1H-benzotriazol-5-yl]prop-2-yn-1-yl}-3-methylimidazolidine-2,4-dione], the EC50 was 415 nM.

As to `Clc1c(C#Cc2ccnnc2)ccc2c1nnn2CC1CC1` [Example 11, 4-chloro-1-(cyclopropylmethyl)-5-(pyridazin-4-ylethynyl)-1H-benzotriazole], the EC50 was 203 nM.

Regarding `COc1cc(C#Cc2ccc3c(nnn3CC3CC3)c2Cl)ccn1` [Example 28, 4-chloro-1-(cyclopropylmethyl)-5-[(2-methoxypyridin-4-yl)ethynyl]-1H-benzotriazole], the EC50 turned out to be 227 nM.

As for `OCCC#Cc1ccc2c(nnn2CC2CC2)c1Cl` [Example 12, 4-[4-chloro-1-(cyclopropylmethyl)-1H-benzotriazol-5-yl]but-3-yn-1-ol], the EC50 was determined as 388 nM.

Take `Clc1c(C#Cc2cccnc2)ccc2c1nnn2CC1CC1` [Example 7, 4-chloro-1-(cyclopropylmethyl)-5-(pyridin-3-ylethynyl)-1H-benzotriazole]: the EC50 was found to be 34 nM.

On to `Nc1cc(C#Cc2ccc3c(nnn3CC3CC3)c2Cl)ccn1` [Example 29, 4-{[4-chloro-1-(cyclopropylmethyl)-1H-benzotriazol-5-yl]ethynyl}pyridin-2-amine], for which the 50% effective concentration (EC50) was 31 nM.

Regarding `Cc1ncccc1C#Cc1ccc2c(nnn2CC2CC2)c1Cl` [Example 16, 4-chloro-1-(cyclopropylmethyl)-5-[(2-methylpyridin-3-yl)ethynyl]-1H-benzotriazole], the EC50 came out at 50 nM.

Take `CC(C)(C)OC(=O)N1CCC(F)(C#Cc2ccc3c(nnn3CC3CC3)c2Br)CC1` [Example 3]: the EC50 was determined as 414 nM.

In the case of `CN1C(=O)CN(CCCC#Cc2ccc3c(nnn3CC3CC3)c2Cl)C1=O` [Example 32, 1-{5-[4-chloro-1-(cyclopropylmethyl)-1H-benzotriazol-5-yl]pent-4-yn-1-yl}-3-methylimidazolidine-2,4-dione], the EC50 was 153 nM.

Turning to `FC(F)(F)c1c(C#Cc2ccncc2)ccc2c1nnn2CC1CC1` [Example 35, 1-(cyclopropylmethyl)-5-(pyridin-4-ylethynyl)-4-(trifluoromethyl)-1H-benzotriazole], the EC50 is 12 nM.

With `CC(C)(C)Cn1nnc2c(Br)c(C#CC3CCN(C(=O)OC(C)(C)C)CC3)ccc21` [Example 1, tert-Butyl 4-{[4-bromo-1-(2,2-dimethylpropyl)-1H-benzotriazol-5-yl]ethynyl}piperidine-1-carboxylate], the EC50 is 100 nM.

With `C=CC#Cc1ccc2c(nnn2CC2CC2)c1Cl` [Example 31, 5-but-3-en-1-yn-1-yl-4-chloro-1-(cyclopropylmethyl)-1H-benzotriazole], the EC50 worked out at 282 nM.

Take `Fc1cncc(C#Cc2ccc3c(nnn3CC3CC3)c2Cl)c1` [Example 21, 4-chloro-1-(cyclopropylmethyl)-5-[(5-fluoropyridin-3-yl)ethynyl]-1H-benzotriazole]: the EC50 was determined as 76 nM.

`Clc1c(C#Cc2ccncc2)ccc2c1nnn2CC1CC1` [Example 8, 4-chloro-1-(cyclopropylmethyl)-5-(pyridin-4-ylethynyl)-1H-benzotriazole]: the EC50 turned out to be 64 nM.

With `OCc1cncc(C#Cc2ccc3c(nnn3CC3CC3)c2Cl)c1` [Example 22, (5-{[4-chloro-1-(cyclopropylmethyl)-1H-benzotriazol-5-yl]ethynyl}pyridin-3-yl)methanol], the EC50 was determined as 57 nM.

Regarding `FC(F)(F)c1c(C#Cc2ccccc2)ccc2c1nnn2CC1CC1` [Example 34, 1-(cyclopropylmethyl)-5-(phenylethynyl)-4-(trifluoromethyl)-1H-benzotriazole], the EC50 worked out at 34 nM.

Consider `Nc1cncc(C#Cc2ccc3c(nnn3CC3CC3)c2Cl)c1` [Example 23, 5-{[4-chloro-1-(cyclopropylmethyl)-1H-benzotriazol-5-yl]ethynyl}pyridin-3-amine], for which the EC50 was 98 nM.

Consider `O=Cc1cncc(C#Cc2ccc3c(nnn3CC3CC3)c2Cl)c1` [Example 15, 5-{[4-chloro-1-(cyclopropylmethyl)-1H-benzotriazol-5-yl]ethynyl}pyridine-3-carbaldehyde], for which the EC50 is 56 nM.

On to `CC(C)(C)Cn1nnc2c(Br)c(C#CC3CCNCC3)ccc21` [Example 2, 4-bromo-1-(2,2-dimethylpropyl)-5-(piperidin-4-ylethynyl)-1H-benzotriazole], for which the EC50 stood at 2710 nM.

With `NC(=O)c1cncc(C#Cc2ccc3c(nnn3CC3CC3)c2Cl)c1` [Example 24, 5-{[4-chloro-1-(cyclopropylmethyl)-1H-benzotriazol-5-yl]ethynyl}pyridine-3-carboxamide], the EC50 is 42 nM.

For `OCC#Cc1ccc2c(nnn2CC2CC2)c1Cl` [Example 13, 3-[4-chloro-1-(cyclopropylmethyl)-1H-benzotriazol-5-yl]prop-2-yn-1-ol], the EC50 came to 576 nM.

With `Cc1ccncc1C#Cc1ccc2c(nnn2CC2CC2)c1Cl` [Example 6, 4-Chloro-1-(cyclopropylmethyl)-5-[(4-methylpyridin-3-yl)ethynyl]-1H-benzotriazole], the EC50 was determined as 50 nM.

Regarding `COc1cncc(C#Cc2ccc3c(nnn3CC3CC3)c2Cl)c1` [Example 20, 4-chloro-1-(cyclopropylmethyl)-5-[(5-methoxypyridin-3-yl)ethynyl]-1H-benzotriazole], the EC50 was 50 nM.

Consider `Cc1cncc(C#Cc2ccc3c(nnn3CC3CC3)c2Cl)c1` [Example 18, 4-chloro-1-(cyclopropylmethyl)-5-[(5-methylpyridin-3-yl)ethynyl]-1H-benzotriazole], for which the EC50 was 57 nM.

Regarding `Clc1c(C#Cc2cnccn2)ccc2c1nnn2CC1CC1` [Example 10, 4-chloro-1-(cyclopropylmethyl)-5-(pyrazin-2-ylethynyl)-1H-benzotriazole], the EC50 is 80 nM.

Take `FC(F)(F)c1c(C#Cc2cccnc2)ccc2c1nnn2CC1CC1` [Example 33, 1-(Cyclopropylmethyl)-5-(pyridin-3-ylethynyl)-4-(trifluoromethyl)-1H-benzotriazole]: the EC50 is 4.8 nM.

As to `Cc1cc(C#Cc2ccc3c(nnn3CC3CC3)c2Cl)ccn1` [Example 27, 4-chloro-1-(cyclopropylmethyl)-5-[(2-methylpyridin-4-yl)ethynyl]-1H-benzotriazole], the EC50 worked out at 43 nM.

Turning to `Fc1cc(C#Cc2ccc3c(nnn3CC3CC3)c2Cl)ccn1` [Example 25, 4-chloro-1-(cyclopropylmethyl)-5-[(2-fluoropyridin-4-yl)ethynyl]-1H-benzotriazole], the EC50 was found to be 77 nM.

`Clc1cc(C#Cc2ccc3c(nnn3CC3CC3)c2Cl)ccn1` [Example 26, 4-chloro-5-[(2-chloropyridin-4-yl)ethynyl]-1-(cyclopropylmethyl)-1H-benzotriazole]: the EC50 was found to be 299 nM.

Values taken from patent US8772276B2, “Alkyne benzotriazole derivatives” (Merck Sharp & Dohme Corp., priority 2011, dated 2014).
